Earlier results in PMC11477167, “Structure–Function Relationship of a Novel MTX-like Peptide (MTX1) Isolated and Characterized from the Venom of the Scorpion Maurus palmatus” (International Journal of Molecular Sciences, 2024).

Experiments:
glioblastoma = conditions: subject of clinical trials; ref [9],[12],[13]; cited from earlier work
Text: (§1) For instance, several research projects have focused on the use of scorpion neurotoxins as potential new treatments against cancers.

[1] = system: glioma and melanoma cells; conditions: glioma (charybdotoxin) and melanoma (iberiotoxin); ref [12],[14]; cited from earlier work
Text: as §1

[2] = system: human lung adenocarcinoma cells; conditions: by blocking Kv1.2 and Kv1.3; ref [15],[16]; cited from earlier work
Text: as §1

chlorotoxin
Effect on glioblastoma cells (glioblastoma): specifically targets the invasion and migration of glioblastoma cells

iberiotoxin (QFTDVDCSVSKECWSVCKDLFGVDRGKCMGKKCRCYQ; UniProt P24663 1-37, looked up)
Inhibition of tumor cell proliferation and migration [1]: able to inhibit glioma and melanoma cell proliferation and migration

margatoxin (TIINVKCTSPKQCLPPCKAQFGQSAGAKCMNGKCKCYPH; UniProt P40755 1-39, looked up)
Inhibition of proliferation [2]: inhibited the proliferation of human lung adenocarcinoma cells
